Earlier results as cited in US20110044993A1, “METHOD FOR THE PREVENTION AND TREATMENT OF CANCER BY INHIBITION OF GPVI” (priority 2008, published 2011).

Target: T1, GPVI (Homo sapiens, UniProt Q9HCN6)
T1 sequence (Q9HCN6 21-339): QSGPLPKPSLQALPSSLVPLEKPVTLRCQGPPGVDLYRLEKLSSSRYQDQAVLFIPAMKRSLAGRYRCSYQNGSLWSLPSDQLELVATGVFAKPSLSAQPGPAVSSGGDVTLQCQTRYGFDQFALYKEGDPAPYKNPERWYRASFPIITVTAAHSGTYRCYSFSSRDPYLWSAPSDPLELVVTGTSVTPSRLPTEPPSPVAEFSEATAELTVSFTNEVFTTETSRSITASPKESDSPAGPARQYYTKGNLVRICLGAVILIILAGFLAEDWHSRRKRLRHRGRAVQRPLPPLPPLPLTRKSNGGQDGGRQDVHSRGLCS
T1 sequence (P30273 19-86 partner): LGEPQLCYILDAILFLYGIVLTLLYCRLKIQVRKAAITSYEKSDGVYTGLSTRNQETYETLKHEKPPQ
Settings: cited from earlier work

CCCCc1nc(Cl)c(C=O)n1Cc1ccc(-c2ccccc2-c2nn[nH]n2)cc1 [EXP3179]
Inhibition of GPVI: inhibits GPVI
